The nature of series [1]: Inhibition of Escherichia coli C-terminal His-tagged PPAT expressed in Escherichia coli using 4'-phosphopantetheine as substrate preincubated for 5 mins followed by substrate and pyrophosphatase addition measured after 30 mins by malachite green reagent-based colorimetric method.
Series [2] deals with Escherichia coli. Kind of series: Binding affinity to Escherichia coli C-terminal His-tagged PPAT expressed in Escherichia coli assessed as change in melting temperature by SYPRO orange dye-based DSF method.
Series [3] in a line: Inhibition of Pseudomonas aeruginosa C-terminal His-tagged PPAT expressed in Escherichia coli using 4'-phosphopantetheine as substrate preincubated for 5 mins followed by substrate and pyrophosphatase addition measured after 30 mins by malachite green reagent-based colorimetric method.
Series [4] relates to Escherichia coli. Kind of series: Antibacterial activity against tolC deficient Escherichia coli BW25113 after 20 hrs by broth microdilution method. Type of series: functional. The conditions noted are these: for MIC: BW25113, 20 h.
Series [5] relates to Escherichia coli. Kind of series: Antibacterial activity against Escherichia coli ATCC 25922 after 20 hrs by broth microdilution method. Type of series: functional. In general terms: Broth dilution looks for growth in wells or tubes with falling amounts of substance.
Series [6] is described as follows: Lipophilicity, log D of the compound at pH 7.4. The format is physicochemical. The conditions noted are these: buffer.
Series [7] in a line: (§1) Binding affinity to Escherichia coli PPAT by SPR method. (In general: In SPR one partner is held on a chip, and binding of the other changes the refractive index at the surface.)
Series [8] relates to Escherichia coli. The description is as §1.
Series [9] is described as follows: Dissociation rate constant to Escherichia coli PPAT by SPR method.
Series [10] in a line: Solubility of the compound. The format is physicochemical.
A short description of series [11]: Inhibition of Staphylococcus aureus C-terminal His-tagged PPAT expressed in Escherichia coli using 4'-phosphopantetheine as substrate preincubated for 5 mins followed by substrate and pyrophosphatase addition measured after 30 mins by malachite green reagent-based colorimetric method.
Series [12] has as its target T1, Bifunctional coenzyme A synthase (Homo sapiens) (UniProt Q13057).
T1 sequence (whole entry): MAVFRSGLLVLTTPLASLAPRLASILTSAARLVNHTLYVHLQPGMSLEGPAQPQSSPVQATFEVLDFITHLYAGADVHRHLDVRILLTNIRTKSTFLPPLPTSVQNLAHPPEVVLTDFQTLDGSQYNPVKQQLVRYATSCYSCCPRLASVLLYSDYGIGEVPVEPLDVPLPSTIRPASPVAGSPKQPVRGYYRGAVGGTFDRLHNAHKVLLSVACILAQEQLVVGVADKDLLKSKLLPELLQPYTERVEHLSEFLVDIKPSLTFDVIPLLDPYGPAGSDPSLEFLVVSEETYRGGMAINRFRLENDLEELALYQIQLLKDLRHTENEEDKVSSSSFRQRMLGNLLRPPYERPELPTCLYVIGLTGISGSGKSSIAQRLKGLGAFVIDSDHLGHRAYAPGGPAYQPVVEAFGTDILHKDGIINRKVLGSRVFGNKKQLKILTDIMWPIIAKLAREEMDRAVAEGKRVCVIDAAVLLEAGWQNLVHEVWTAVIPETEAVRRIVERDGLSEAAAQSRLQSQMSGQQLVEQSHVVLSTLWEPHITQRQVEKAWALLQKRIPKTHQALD
Kind of series: Inhibition of human PPAT up to 500 uM.

A short description of series [13]: Inhibition of Escherichia coli C-terminal His-tagged PPAT expressed in Escherichia coli using 10 times 4'-phosphopantetheine as substrate preincubated for 5 mins followed by substrate and pyrophosphatase addition measured after 30 mins by malachite green reagent-based colorimetric method.
The test system of series [14] is Escherichia coli. Description: Ratio of IC50 for Escherichia coli C-terminal His-tagged PPAT expressed in Escherichia coli using 10 times 4'-phosphopantetheine as substrate to IC50 for Escherichia coli C-terminal His-tagged PPAT expressed in Escherichia coli using 4'-phosphopantetheine as substrate.
Series [15] relates to Escherichia coli. Kind of series: Selectivity ratio of IC50 for Escherichia coli C-terminal His-tagged PPAT M74L mutant to IC50 for Escherichia coli C-terminal His-tagged PPAT.
Series [16] relates to Escherichia coli. Description: Inhibition of Escherichia coli C-terminal His-tagged PPAT V135I mutant using 4'-phosphopantetheine as substrate preincubated for 20 mins followed by substrate and pyrophosphatase addition by malachite green reagent-based assay.
In series [17] the test system is Escherichia coli. Kind of series: Inhibition of Escherichia coli C-terminal His-tagged PPAT H138L mutant using 4'-phosphopantetheine as substrate preincubated for 20 mins followed by substrate and pyrophosphatase addition by malachite green reagent-based assay.
Series [18] addresses T2, Bifunctional coenzyme A synthase (Homo sapiens, UniProt Q13057).
T2 sequence (Q13057 whole entry): T1 sequence (whole entry)
Description: Inhibition of human PPAT.

Series [19] is described as follows: Selectivity ratio of IC50 for human PPAT to IC50 for Escherichia coli C-terminal His-tagged PPAT.
For series [20], the system named is Escherichia coli. Kind of series: Inhibition of Escherichia coli C-terminal His-tagged PPAT expressed in Escherichia coli up to 500 uM using 4'-phosphopantetheine as substrate preincubated for 5 mins followed by substrate and pyrophosphatase addition measured after 30 mins by malachite green reagent-based colorimetric method.

Here are results for 24 compounds from ChEMBL document CHEMBL4043289, “Fragment-Based Drug Discovery of Inhibitors of Phosphopantetheine Adenylyltransferase from Gram-Negative Bacteria” (J Med Chem, 2018).

As a reminder, the IC50 is the point on the concentration scale where inhibition reaches its midpoint. As a reminder, the ΔTm is the change in melting temperature against a reference sample. As a reminder, the logD is the decadic logarithm of the distribution of all forms, ionised or not, between an organic phase and buffer at a given pH. Lower therefore signals a more hydrophilic compound. For orientation: Kd means the concentration at which binding is half-saturated. By MIC is commonly meant the lowest concentration found to suppress growth. As usually defined, the koff is a measure of how fast the partners let go of each other. Read a low koff as slow dissociation. One may read the solubility as how much of the substance goes into solution per volume. Read a low solubility as a poorly soluble substance.

≈ marks a conversion by molar mass, not a printed value. Calls of active or inactive are those of the source. The calls are words filed in the database; no cut-off is given here.

Compound `Cc1cc(C)nc(NS(=O)(=O)c2ccc(N)cc2C)n1` registered an IC50 in [1] of 74 µM. For the same compound, the ΔTm with Escherichia coli [2] worked out at 8.7 °C.
As to `CC(C)(CO)[C@@H](O)C(=O)NCCc1nc2c(O)cccc2[nH]1`, the IC50 came out at 30 µM in series [1] and 114 µM in series [3]. For the same compound, the outcome in the series on Escherichia coli [4] and with Escherichia coli [5] was inactive.
Turning to `Cc1ccc2[nH]c(N[C@H](C)c3cccc(Cl)c3)nc2n1`, the IC50 was found to be 0.19 µM in [1] and 0.61 µM in [3]. The logD in [6] amounted to 3.3.
In the case of `CC1(C)OC(=O)c2ccccc2[C@H]1n1cncc1C(F)F`, the IC50 in [1] was 163 µM. Besides, the ΔTm with Escherichia coli [2] is 3.8 °C.
Take `CC(C)(C)Nc1ccc2nnc(C(F)(F)F)n2n1`: the IC50 in [1] was > 2500 µM. Also, in the series with Escherichia coli [2], the ΔTm stood at 2.5 °C.
`NC1=NC(c2cccc(F)c2)n2c(nc3ccccc32)N1` (configuration not stated) came in with an IC50 in series [1] of 69 µM. Further, the ΔTm in the series on Escherichia coli [2] worked out at 3.4 °C.
Regarding `Cc1ccc2[nH]c(N[C@H](CC#N)c3cccc(Cl)c3)nc2n1`, the figures for the half-maximal inhibitory concentration (IC50) in series [1] and in series [3] were 0.056 µM and 0.064 µM, respectively. In series [7], this compound came in with a Kd of 0.01 µM. Further, the Ka in the series on Escherichia coli [8] turned out to be 13 ×10⁵ /M/s. The compound also yielded a minimal inhibitory concentration (MIC) in the series with Escherichia coli [4] of 4 µg/mL (≈ 12.8 µM). This compound came in with a logD in series [6] of 3.3. For the same compound, the outcome in the series on Escherichia coli [5] was inactive. In [9], this compound returned a koff of 0.013 s⁻¹.
As for `O=C(NCCCCCNC(=O)c1ccco1)c1ccco1`, the IC50 in series [1] was 237 µM. In addition, the ΔTm in the series with Escherichia coli [2] amounted to 2.9 °C.
Turning to `Cc1cc(=O)n2nc(N[C@H](CC#N)c3cccc(Cl)c3)nc2[nH]1`, the IC50 is 0.037 µM in series [1], 0.049 µM in series [3] and > 500 µM in series [11]. In addition, the Kd in series [7] was 0.009 µM. In the series with Escherichia coli [8], this compound gave a Ka of 23 ×10⁵ /M/s. The compound further showed an MIC against Escherichia coli [4] of 16 µg/mL (≈ 48.7 µM). For the same compound, the logD in series [6] was found to be 1.2. The outcome in the series on Escherichia coli [5] was inactive. Also, the solubility in series [10] is > 300 µg/mL. Moreover, the inhibition entry in series [12] is “inactive”. This compound gave an off-rate (koff) in series [9] of 0.021 s⁻¹.
As for `Oc1cccc2[nH]c(CCc3cccc(Cl)c3)nc12`, the IC50 amounted to 0.25 µM in series [1] and 4.6 µM in series [3]. For the same compound, 32 µg/mL (≈ 117 µM) was the least that counted as inhibitory with Escherichia coli [4] (MIC).
For the compound `Cc1cc(=O)n2nc(N[C@H](C)c3cccc(Cl)c3)nc2[nH]1`, the IC50 was 0.25 µM in [1], 0.97 µM in series [3] and 0.92 µM in [13]. The Ratio IC50 in the series with Escherichia coli [14] came out at 3.7. Further, in series [7], binding was put at a Kd of 0.17 µM. In addition, the Ka with Escherichia coli [8] came to 0.16 ×10⁵ /M/s. Also, the logD in [6] is 1.1. The compound also had a solubility in [10] of 68 µg/mL (≈ 224 µM). In series [9], the off-rate constant (koff) is 0.0028 s⁻¹.
For the compound `CC(C)CNC(=O)[C@@H](Cc1cnc[nH]1)NC(=O)[C@H](CCC(=O)O)NC(=O)OC1c2ccccc2-c2ccccc21`, in the series with Escherichia coli [15], the Ratio IC50 was found to be 25. The inhibition entry with Escherichia coli [16] and with Escherichia coli [17] was “Active” throughout.
Turning to `COc1ccc2c(c1)C(C)(C)C1CC2CN(C(C)=O)C1` (configuration not stated), in series [1], the half-maximal inhibitory concentration (IC50) was found to be 37 µM. Further, the thermal shift (ΔTm) in the series on Escherichia coli [2] came out at 5.1 °C.
On to `Cc1cc(=O)n2nc(NCc3cccc(Cl)c3)nc2[nH]1`, for which the IC50 in series [1] amounted to 7.6 µM; in [13], 43 µM. In addition, the Ratio IC50 with Escherichia coli [14] was found to be 5.7.
With `Cc1cc(=O)n2nc(N[C@H](CCO)c3cccc(Cl)c3)nc2[nH]1`, the results for the IC50 in series [1], in series [3] and in series [13] were 0.24 µM, 2 µM and 0.44 µM, respectively. The Ratio IC50 in the series with Escherichia coli [14] worked out at 1.8.
`C[C@@H](Nc1nc2c(O)cccc2[nH]1)c1cccc(Cl)c1`: the IC50 was found to be 1.2 µM in [1], 15 µM in series [3] and 11 µM in series [18]. The Ratio IC50 in series [19] came to 9.
In series [1], `Nc1ncnc2ncn(Cc3cccc(Cl)c3)c12` returned a 50% inhibitory concentration (IC50) of 264 µM. Also, the ΔTm in the series with Escherichia coli [2] worked out at 2.7 °C.
`c1ccc(Cn2cnc3ncccc32)cc1` came in with an IC50 in series [1] of 273 µM. In addition, the ΔTm in the series on Escherichia coli [2] was 2.3 °C.
As to `Cc1cc(=O)n2nc(NC(C)c3cccc(Cl)c3)nc2[nH]1` (racemic), the IC50 in series [1] was 0.76 µM; in series [3], 1.4 µM; in series [13], 3.2 µM. In addition, the Ratio IC50 with Escherichia coli [14] was determined as 4.2.
Take `COc1ccc2[nH]cc(CCNC(=O)C(C)(C)C)c2c1`: the 50% inhibitory concentration (IC50) in series [1] was found to be 199 µM. In addition, the ΔTm in the series with Escherichia coli [2] worked out at 3.1 °C.
In the case of `CCCCCNC(=O)CCNC(=O)[C@H](O)C(C)(C)CO`, the MIC stood at 16 µg/mL (≈ 55.5 µM) against Escherichia coli [4] and 64 µg/mL (≈ 222 µM) against Escherichia coli [5] (ATCC 25922, 20 h). Moreover, the inhibition entry with Escherichia coli [20] is “inactive”.
As to `Oc1cccc2[nH]c([C@H]3CCC[C@@H]3c3cccc(Cl)c3)nc12` (relative stereo), the IC50 in [1] was found to be 0.051 µM; in [3], 1.6 µM. Also, the affinity in series [7], expressed as Kd, was 0.038 µM. In addition, the Ka in the series with Escherichia coli [8] amounted to 1.96 ×10⁵ /M/s. This compound yielded a koff in series [9] of 0.0071 s⁻¹.
The compound `Cc1[nH]c2nc(NCc3ccccc3F)nn2c(=O)c1C` registered a half-inhibitory concentration (IC50) in series [1] of 31 µM. Moreover, the ΔTm in the series with Escherichia coli [2] was 2.5 °C.
On to `Oc1cccc2[nH]c(C(F)(F)F)nc12`, for which the IC50 in series [1] was 230 µM; in [3] it was > 500 µM. The ΔTm in the series with Escherichia coli [2] is 8.1 °C.
